In US20020137929A1, “1 - (3-heterocyclylphenyl) isothiourea, -isourea, -guanidine and -amidine herbicidal agents” (Intellectual Property Department, BASF Aktiengesellschaft, priority 1998, published 2002):

Tests used:
MOOVA (Monochoria) = test: Preemergence weed control under flooded paddy conditions; type: in vivo, Monochoria vaginalis; conditions: rated 3-4 weeks after treatment
Outline: (§1)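 First, seeds or propagules go into the top 0.5 cm of silt loam; next, water is held 1.5 to 3 cm over the soil; then compound (50/50 acetone/water) is pipetted into it at about 0.0313 to 0.500 kg/ha; finally plants are rated visually 0-9 after three to four weeks.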

ECHCG (Barnyardgrass) = test: Preemergence herbicidal evaluation; type: in vivo, Echinochloa crus-galli; conditions: rated 4-5 weeks after treatment
Outline: (§2)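 Greenhouse preemergence test: seed-soil mix sown on ~1 inch soil; aqueous acetone spray at equivalent of ~0.0156–0.500 kg/ha; greenhouse-held and watered; scored 0–9 visually at 4–5 weeks.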

ABUTH (Velvetleaf) = test: Preemergence herbicidal evaluation; type: in vivo, Abutilon theophrasti; conditions: rated 4-5 weeks after treatment
Outline: as §2

[1] = system: TRZAWR (Wheat, Winter, cv Riband); test: Preemergence herbicidal evaluation; type: in vivo, Triticum aestivum; conditions: rated 4-5 weeks after treatment
Outline: as §2

[2] = system: IPOHE (Morningglory, Ivyleaf); test: Preemergence herbicidal evaluation; type: in vivo, Ipomoea hederacea; conditions: rated 4-5 weeks after treatment
Outline: as §2

[3] = system: IPOHE (Morningglory, Ivyleaf); test: Postemergence herbicidal evaluation; type: in vivo, Ipomoea hederacea; conditions: for Herbicidal rating IPOHE: postemergence
Outline: (§3)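 Seedlings grown about two weeks were sprayed at 40 psi with compound dispersed in 50/50 acetone/water plus 0.5% TWEEN 20, at about 0.0156 to 0.500 kg/ha. Plants were kept in the greenhouse and scored 4–5 weeks later on a 0–9 visual scale against untreated controls.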

[4] = system: GLXMAW (Soybean, Williams); test: Preemergence herbicidal evaluation; type: in vivo, Glycine max, (L.) Merr. cv Williams; conditions: rated 4-5 weeks after treatment
Outline: as §2

CASOB (Sicklepod) [5] = test: Postemergence herbicidal evaluation; type: in vivo, Cassia obtusifolia; conditions: for Herbicidal rating CASOB: postemergence
Outline: as §3

ZEAMX (Corn, Field) = test: Preemergence herbicidal evaluation; type: in vivo, Zea mays; conditions: rated 4-5 weeks after treatment
Outline: as §2

CASOB (Sicklepod) [6] = test: Preemergence herbicidal evaluation; type: in vivo, Cassia obtusifolia; conditions: rated 4-5 weeks after treatment
Outline: as §2

[7] = system: SAGPY (Arrowhead (Pygmaea)); test: Preemergence weed control under flooded paddy conditions; type: in vivo, Sagittaria pygmaea; conditions: rated 3-4 weeks after treatment
Outline: as §1

GALAP (Galium) = test: Postemergence herbicidal evaluation; type: in vivo, Galium aparine; conditions: for Herbicidal rating GALAP: postemergence
Outline: as §3

AMBEL (Ragweed, Common) = test: Postemergence herbicidal evaluation; type: in vivo, Ambrosia artemisifolia; conditions: for Herbicidal rating AMBEL: postemergence
Outline: as §3

CCOC(=O)CN1C(=O)C(CC(=O)O)SC1=Nc1cc(N2C(=O)CC(C(F)(F)F)CC2=O)c(F)cc1Cl (stereo not shown) [Compound 170, 2-{{2-Chloro-5-[2,6-dioxo-4-(trifluoromethyl)-piperidino]-4-fluorophenyl}imino}-4-oxo-3,5-thiazolidinediacetic acid, 3-ethyl ester]
herbicidal effect rating, MOOVA (MOOVA (Monochoria); 0.0313 kg/ha): 9.0
herbicidal effect rating, MOOVA (MOOVA (Monochoria); 0.0625 kg/ha): 9.0
herbicidal effect rating, MOOVA (MOOVA (Monochoria); 0.1250 kg/ha): 9.0
herbicidal effect rating, MOOVA (MOOVA (Monochoria); 0.2500 kg/ha): 9.0
Preemergence herbicidal rating ECHCG (ECHCG (Barnyardgrass); 0.0156 kg/ha): 3.0
Preemergence herbicidal rating ECHCG (ECHCG (Barnyardgrass); 0.0313 kg/ha): 9.0
Preemergence herbicidal rating ECHCG (ECHCG (Barnyardgrass); 0.0625 kg/ha): 9.0
Preemergence herbicidal rating ECHCG (ECHCG (Barnyardgrass); 0.1250 kg/ha): 9.0
Preemergence herbicidal rating ECHCG (ECHCG (Barnyardgrass); 0.2500 kg/ha): 9.0
Preemergence herbicidal rating ABUTH (ABUTH (Velvetleaf); 0.0156 kg/ha): 0.0
Preemergence herbicidal rating ABUTH (ABUTH (Velvetleaf); 0.0313 kg/ha): 6.0
Preemergence herbicidal rating ABUTH (ABUTH (Velvetleaf); 0.0625 kg/ha): 9.0
Preemergence herbicidal rating ABUTH (ABUTH (Velvetleaf); 0.1250 kg/ha): 9.0
Preemergence herbicidal rating ABUTH (ABUTH (Velvetleaf); 0.2500 kg/ha): 9.0
Preemergence herbicidal rating TRZAWR ([1]; 0.0156 kg/ha): 0.0
Preemergence herbicidal rating TRZAWR ([1]; 0.0313 kg/ha): 6.0
Preemergence herbicidal rating TRZAWR ([1]; 0.0625 kg/ha): 7.0
Preemergence herbicidal rating TRZAWR ([1]; 0.1250 kg/ha): 8.0
Preemergence herbicidal rating TRZAWR ([1]; 0.2500 kg/ha): 9.0
Preemergence herbicidal rating IPOHE ([2]; 0.0156 kg/ha): 3.0
Preemergence herbicidal rating IPOHE ([2]; 0.0313 kg/ha): 7.0
Preemergence herbicidal rating IPOHE ([2]; 0.1250 kg/ha): 7.0
Preemergence herbicidal rating IPOHE ([2]; 0.2500 kg/ha): 9.0
Herbicidal rating IPOHE ([3]; rate 0.0156 kg/ha): 9.0
Herbicidal rating IPOHE ([3]; rate 0.0313 kg/ha): 9.0
Herbicidal rating IPOHE ([3]; rate 0.0625 kg/ha): 9.0
Preemergence herbicidal rating GLXMAW ([4]; 0.0156 kg/ha): 1.0
Preemergence herbicidal rating GLXMAW ([4]; 0.0313 kg/ha): 4.0
Preemergence herbicidal rating GLXMAW ([4]; 0.0625 kg/ha): 4.0
Preemergence herbicidal rating GLXMAW ([4]; 0.1250 kg/ha): 5.0
Preemergence herbicidal rating GLXMAW ([4]; 0.2500 kg/ha): 8.0
Herbicidal rating CASOB (CASOB (Sicklepod) [5]; rate 0.0156 kg/ha): 0.0
Herbicidal rating CASOB (CASOB (Sicklepod) [5]; rate 0.0313 kg/ha): 0.0
Herbicidal rating CASOB (CASOB (Sicklepod) [5]; rate 0.0625 kg/ha): 1.0
Preemergence herbicidal rating ZEAMX (ZEAMX (Corn, Field); 0.0156 kg/ha): 5.0
Preemergence herbicidal rating ZEAMX (ZEAMX (Corn, Field); 0.0313 kg/ha): 7.0
Preemergence herbicidal rating ZEAMX (ZEAMX (Corn, Field); 0.0625 kg/ha): 8.0
Preemergence herbicidal rating ZEAMX (ZEAMX (Corn, Field); 0.1250 kg/ha): 9.0
Preemergence herbicidal rating ZEAMX (ZEAMX (Corn, Field); 0.2500 kg/ha): 9.0
Preemergence herbicidal rating CASOB (CASOB (Sicklepod) [6]; 0.0156 kg/ha): 0.0
Preemergence herbicidal rating CASOB (CASOB (Sicklepod) [6]; 0.0313 kg/ha): 0.0
Preemergence herbicidal rating CASOB (CASOB (Sicklepod) [6]; 0.0625 kg/ha): 0.0
Preemergence herbicidal rating CASOB (CASOB (Sicklepod) [6]; 0.1250 kg/ha): 3.0
Preemergence herbicidal rating CASOB (CASOB (Sicklepod) [6]; 0.2500 kg/ha): 3.0
herbicidal effect rating, SAGPY ([7]; 0.0313 kg/ha): 5.0
herbicidal effect rating, SAGPY ([7]; 0.0625 kg/ha): 9.0
herbicidal effect rating, SAGPY ([7]; 0.1250 kg/ha): 8.0
herbicidal effect rating, SAGPY ([7]; 0.2500 kg/ha): 9.0
Herbicidal rating GALAP (GALAP (Galium); rate 0.0156 kg/ha): 0.0
Herbicidal rating GALAP (GALAP (Galium); rate 0.0313 kg/ha): 3.0
Herbicidal rating GALAP (GALAP (Galium); rate 0.0625 kg/ha): 4.0
Herbicidal rating AMBEL (AMBEL (Ragweed, Common); rate 0.0156 kg/ha): 9.0
Herbicidal rating AMBEL (AMBEL (Ragweed, Common); rate 0.0313 kg/ha): 9.0
Herbicidal rating AMBEL (AMBEL (Ragweed, Common); rate 0.0625 kg/ha): 9.0

COCCCN1C(=O)CSC1=Nc1cc(-n2c(=O)cc(C(F)(F)F)n(C)c2=O)c(F)cc1Cl [Compound 172, 3-{4-Chloro-2-fluoro-5-{[3-(3-methoxypropyl)-4-oxo-2-thiazolidinylidene]amino}phenyl}-1-methyl-6-(trifluoromethyl)-2,4(1H, 3H)-pyrimidinedione]
herbicidal effect rating, MOOVA (MOOVA (Monochoria); 0.0313 kg/ha): 9.0
herbicidal effect rating, MOOVA (MOOVA (Monochoria); 0.0625 kg/ha): 9.0
herbicidal effect rating, MOOVA (MOOVA (Monochoria); 0.1250 kg/ha): 9.0
herbicidal effect rating, MOOVA (MOOVA (Monochoria); 0.2500 kg/ha): 9.0
Preemergence herbicidal rating ECHCG (ECHCG (Barnyardgrass); 0.0156 kg/ha): 4.0
Preemergence herbicidal rating ECHCG (ECHCG (Barnyardgrass); 0.0313 kg/ha): 6.0
Preemergence herbicidal rating ECHCG (ECHCG (Barnyardgrass); 0.0625 kg/ha): 8.0
Preemergence herbicidal rating ECHCG (ECHCG (Barnyardgrass); 0.1250 kg/ha): 8.0
Preemergence herbicidal rating ECHCG (ECHCG (Barnyardgrass); 0.2500 kg/ha): 9.0
Preemergence herbicidal rating ABUTH (ABUTH (Velvetleaf); 0.0156 kg/ha): 9.0
Preemergence herbicidal rating ABUTH (ABUTH (Velvetleaf); 0.0313 kg/ha): 9.0
Preemergence herbicidal rating ABUTH (ABUTH (Velvetleaf); 0.0625 kg/ha): 9.0
Preemergence herbicidal rating ABUTH (ABUTH (Velvetleaf); 0.1250 kg/ha): 9.0
Preemergence herbicidal rating ABUTH (ABUTH (Velvetleaf); 0.2500 kg/ha): 9.0
Preemergence herbicidal rating TRZAWR ([1]; 0.0156 kg/ha): 2.0
Preemergence herbicidal rating TRZAWR ([1]; 0.0313 kg/ha): 3.0
Preemergence herbicidal rating TRZAWR ([1]; 0.0625 kg/ha): 7.0
Preemergence herbicidal rating TRZAWR ([1]; 0.1250 kg/ha): 7.0
Preemergence herbicidal rating TRZAWR ([1]; 0.2500 kg/ha): 9.0
Preemergence herbicidal rating IPOHE ([2]; 0.0156 kg/ha): 2.0
Preemergence herbicidal rating IPOHE ([2]; 0.0313 kg/ha): 7.0
Preemergence herbicidal rating IPOHE ([2]; 0.0625 kg/ha): 7.0
Preemergence herbicidal rating IPOHE ([2]; 0.1250 kg/ha): 9.0
Preemergence herbicidal rating IPOHE ([2]; 0.2500 kg/ha): 9.0
Postemergence herbicidal rating IPOHE ([3]; Rate 0.0313 kg/ha): 9.0
Postemergence herbicidal rating IPOHE ([3]; Rate 0.0625 kg/ha): 9.0
Postemergence herbicidal rating IPOHE ([3]; rate 0.0156 kg/ha): 9.0
Preemergence herbicidal rating GLXMAW ([4]; 0.0156 kg/ha): 1.0
Preemergence herbicidal rating GLXMAW ([4]; 0.0313 kg/ha): 2.0
Preemergence herbicidal rating GLXMAW ([4]; 0.0625 kg/ha): 7.0
Preemergence herbicidal rating GLXMAW ([4]; 0.1250 kg/ha): 9.0
Preemergence herbicidal rating GLXMAW ([4]; 0.2500 kg/ha): 9.0
Postemergence herbicidal rating CASOB (CASOB (Sicklepod) [5]; Rate 0.0313 kg/ha): 2.0
Postemergence herbicidal rating CASOB (CASOB (Sicklepod) [5]; Rate 0.0625 kg/ha): 2.0
Postemergence herbicidal rating CASOB (CASOB (Sicklepod) [5]; rate 0.0156 kg/ha): 1.0
Preemergence herbicidal rating ZEAMX (ZEAMX (Corn, Field); 0.0156 kg/ha): 4.0
Preemergence herbicidal rating ZEAMX (ZEAMX (Corn, Field); 0.0313 kg/ha): 7.0
Preemergence herbicidal rating ZEAMX (ZEAMX (Corn, Field); 0.0625 kg/ha): 8.0
Preemergence herbicidal rating ZEAMX (ZEAMX (Corn, Field); 0.1250 kg/ha): 9.0
Preemergence herbicidal rating ZEAMX (ZEAMX (Corn, Field); 0.2500 kg/ha): 9.0
Preemergence herbicidal rating CASOB (CASOB (Sicklepod) [6]; 0.0156 kg/ha): 1.0
Preemergence herbicidal rating CASOB (CASOB (Sicklepod) [6]; 0.0313 kg/ha): 3.0
Preemergence herbicidal rating CASOB (CASOB (Sicklepod) [6]; 0.0625 kg/ha): 7.0
Preemergence herbicidal rating CASOB (CASOB (Sicklepod) [6]; 0.1250 kg/ha): 9.0
Preemergence herbicidal rating CASOB (CASOB (Sicklepod) [6]; 0.2500 kg/ha): 9.0
herbicidal effect rating, SAGPY ([7]; 0.0313 kg/ha): 6.0
herbicidal effect rating, SAGPY ([7]; 0.0625 kg/ha): 6.0
herbicidal effect rating, SAGPY ([7]; 0.1250 kg/ha): 9.0
herbicidal effect rating, SAGPY ([7]; 0.2500 kg/ha): 9.0
Postemergence herbicidal rating GALAP (GALAP (Galium); Rate 0.0313 kg/ha): 4.0
Postemergence herbicidal rating GALAP (GALAP (Galium); Rate 0.0625 kg/ha): 7.0
Postemergence herbicidal rating GALAP (GALAP (Galium); rate 0.0156 kg/ha): 3.0
Postemergence herbicidal rating AMBEL (AMBEL (Ragweed, Common); Rate 0.0313 kg/ha): 9.0
Postemergence herbicidal rating AMBEL (AMBEL (Ragweed, Common); Rate 0.0625 kg/ha): 9.0
Postemergence herbicidal rating AMBEL (AMBEL (Ragweed, Common); rate 0.0156 kg/ha): 6.0
